Assay results as given in PMC9549968 (The Journal of investigative dermatology, 2021).
Positions of bridges follow the written chain, without caps; N, C: chain ends. No end group written: not given here.

Columns and labels:
Mrgpra3-Cre-GFP neurons = experiment: Whole-cell patch-clamp recording of Mrgpra3-Cre-GFP neurons; format: cell-based, mouse; settings: n=8/8
mice = experiment: Itch behavior: scratching bouts after intradermal injection; format: in vivo, mouse; settings: for itch-responses (scratching bouts): mice, intradermal injection 1mM, 10μL, versus saline, n=8-12
DRG neurons = experiment: Calcium imaging of cultured DRG neurons; format: cell-based, mouse; settings: 352 neurons imaged
Mrgpra1 = target: T1, Mrgpra1 (Mus musculus, UniProt Q91WW5); experiment: FLIPR calcium imaging, HEK293 expressing Mrgpra1; format: cell-based; settings: SEM
T1 sequence (Q91WW5 1-304): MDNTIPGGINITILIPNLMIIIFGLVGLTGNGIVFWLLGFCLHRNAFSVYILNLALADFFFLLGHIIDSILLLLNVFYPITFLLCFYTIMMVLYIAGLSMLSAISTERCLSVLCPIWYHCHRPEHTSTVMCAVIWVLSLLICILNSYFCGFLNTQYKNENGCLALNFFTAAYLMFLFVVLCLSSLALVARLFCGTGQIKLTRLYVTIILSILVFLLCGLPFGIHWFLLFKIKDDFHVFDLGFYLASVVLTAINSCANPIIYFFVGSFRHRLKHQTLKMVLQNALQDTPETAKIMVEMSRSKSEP

Mrgprb2 = target: T2, Mrgprb2 (Mus musculus, UniProt Q3KNA1); experiment: FLIPR calcium imaging, HEK293 expressing Mrgprb2; format: cell-based
T2 sequence (Q3KNA1 1-338): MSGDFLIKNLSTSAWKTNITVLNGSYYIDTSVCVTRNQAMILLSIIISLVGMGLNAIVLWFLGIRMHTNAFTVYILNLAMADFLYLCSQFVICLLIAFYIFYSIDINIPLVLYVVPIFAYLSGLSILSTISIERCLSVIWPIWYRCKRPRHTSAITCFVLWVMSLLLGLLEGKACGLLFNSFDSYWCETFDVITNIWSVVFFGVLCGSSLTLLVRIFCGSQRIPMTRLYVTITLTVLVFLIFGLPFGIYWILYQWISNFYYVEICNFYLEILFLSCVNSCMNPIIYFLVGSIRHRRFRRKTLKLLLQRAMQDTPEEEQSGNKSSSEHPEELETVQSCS

Mrgpra2b = target: T3, Mrgpra2b (Mus musculus, UniProt Q91WW4); experiment: FLIPR calcium imaging, HEK293 expressing Mrgpra2b; format: cell-based
T3 sequence (Q91WW4 1-305): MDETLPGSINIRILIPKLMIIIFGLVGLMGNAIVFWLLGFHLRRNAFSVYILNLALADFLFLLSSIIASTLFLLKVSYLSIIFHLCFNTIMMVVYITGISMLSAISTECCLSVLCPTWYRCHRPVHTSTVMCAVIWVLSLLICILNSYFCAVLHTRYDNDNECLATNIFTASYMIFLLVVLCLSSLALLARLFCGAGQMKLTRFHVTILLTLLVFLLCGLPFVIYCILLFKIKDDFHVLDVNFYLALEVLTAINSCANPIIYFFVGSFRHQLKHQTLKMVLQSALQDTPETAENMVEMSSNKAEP

Mrgpra3 = target: T4, Mrgpra3 (Mus musculus, UniProt Q91WW3); experiment: FLIPR calcium imaging, HEK293 expressing Mrgpra3; format: cell-based
T4 sequence (Q91WW3 1-302): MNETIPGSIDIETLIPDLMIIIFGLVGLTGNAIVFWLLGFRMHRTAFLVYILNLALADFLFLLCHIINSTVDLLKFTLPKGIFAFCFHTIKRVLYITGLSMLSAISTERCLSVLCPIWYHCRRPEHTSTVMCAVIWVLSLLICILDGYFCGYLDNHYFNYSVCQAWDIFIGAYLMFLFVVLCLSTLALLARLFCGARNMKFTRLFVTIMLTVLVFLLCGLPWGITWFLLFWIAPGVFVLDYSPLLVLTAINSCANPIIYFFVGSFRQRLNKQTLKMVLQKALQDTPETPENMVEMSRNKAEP

Mrgprc11 = target: T5, Mrgprc11 (Mus musculus, UniProt Q8CIP3); experiment: FLIPR calcium imaging, HEK293 expressing Mrgprc11; format: cell-based
T5 sequence (Q8CIP3 1-322): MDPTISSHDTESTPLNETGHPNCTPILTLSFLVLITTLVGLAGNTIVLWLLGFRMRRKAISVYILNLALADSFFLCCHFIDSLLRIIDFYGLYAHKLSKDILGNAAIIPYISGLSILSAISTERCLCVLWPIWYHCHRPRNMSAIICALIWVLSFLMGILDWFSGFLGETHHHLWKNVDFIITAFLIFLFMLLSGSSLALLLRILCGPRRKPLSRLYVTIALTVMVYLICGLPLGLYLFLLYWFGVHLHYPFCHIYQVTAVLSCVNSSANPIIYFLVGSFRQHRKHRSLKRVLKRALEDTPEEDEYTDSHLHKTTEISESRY

MRGPRX1 = MRGPRX1 (Homo sapiens, UniProt Q96LB2); experiment: FLIPR calcium imaging, HEK293 expressing MRGPRX1; format: cell-based; settings: SEM
Chain of MRGPRX1 (Q96LB2 whole entry): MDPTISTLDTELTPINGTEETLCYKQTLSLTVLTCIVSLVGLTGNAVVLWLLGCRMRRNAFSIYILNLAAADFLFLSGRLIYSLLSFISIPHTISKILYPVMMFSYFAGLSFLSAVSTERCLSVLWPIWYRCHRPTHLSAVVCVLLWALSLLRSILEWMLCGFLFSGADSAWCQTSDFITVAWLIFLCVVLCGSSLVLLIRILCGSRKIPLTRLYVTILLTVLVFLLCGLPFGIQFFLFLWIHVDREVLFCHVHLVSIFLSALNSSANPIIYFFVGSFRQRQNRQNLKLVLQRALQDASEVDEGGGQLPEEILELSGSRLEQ

MRGPRX2 = target: T6, MRGPRX2 (Homo sapiens, UniProt Q96LB1); experiment: FLIPR calcium imaging, HEK293 expressing MRGPRX2; format: cell-based; settings: SEM
T6 sequence (Q96LB1 1-330): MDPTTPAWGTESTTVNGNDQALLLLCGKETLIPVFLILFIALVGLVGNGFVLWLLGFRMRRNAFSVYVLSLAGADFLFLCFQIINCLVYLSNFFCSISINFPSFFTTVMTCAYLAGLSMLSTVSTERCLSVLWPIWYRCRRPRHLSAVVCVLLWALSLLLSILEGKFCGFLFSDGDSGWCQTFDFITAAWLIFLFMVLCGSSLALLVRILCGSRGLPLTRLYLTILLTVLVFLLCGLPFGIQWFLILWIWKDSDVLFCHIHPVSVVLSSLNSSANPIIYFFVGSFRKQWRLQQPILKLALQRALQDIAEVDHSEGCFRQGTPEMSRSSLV

MRGPRX3 = MRGPRX3 (Homo sapiens, UniProt Q96LB0); experiment: FLIPR calcium imaging, HEK293 expressing MRGPRX3; format: cell-based
Chain of MRGPRX3 (Q96LB0 whole entry): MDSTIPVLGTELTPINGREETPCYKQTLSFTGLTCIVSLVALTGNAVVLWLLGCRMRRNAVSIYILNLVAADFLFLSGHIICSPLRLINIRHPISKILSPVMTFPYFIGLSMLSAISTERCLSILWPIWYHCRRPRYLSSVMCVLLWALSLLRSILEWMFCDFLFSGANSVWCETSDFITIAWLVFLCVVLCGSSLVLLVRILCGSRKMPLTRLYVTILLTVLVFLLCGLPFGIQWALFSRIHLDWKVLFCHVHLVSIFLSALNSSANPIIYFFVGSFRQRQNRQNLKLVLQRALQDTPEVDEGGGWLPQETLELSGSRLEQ

With CCN(CC)CCCC(C)Nc1ccnc2cc(Cl)ccc12 (stereo not drawn) [CQ, chloroquine, reference compound] as the molecule, how does the “action potential discharges in Mrgpra3-Cre-GFP neurons” value (Mrgpra3-Cre-GFP neurons; 100μM) read?
The value was “evoked action potential discharges”.

For “Defb1: recombinant mouse β-defensin, constitutively highly expressed in skin (DQYKCLQHGGFCLRSSCPSNTKLQGTCKPDKPNCCKS; ends and bridges not checked; cysteine pairing not given here; UniProt P56386 33-69, looked up)”, which “itch-responses (scratching bouts)” value (mice) is on record?
The value was “not significantly different from saline injection”.

What does the source list for “FLPKTLRKFFCRIRGGRCAVLNCLGKEEQIGRCSNSGRKCCRKKK (disulfide 11-40, 18-33, 23-41) [Defb14]”?
Defb14-responsive neurons that responded to CQ (DRG neurons; cultured mouse DRG neurons, AAV9-GCaMP6f): 46/55; calcium response of DRG neurons (DRG neurons; dissociated mouse DRG neurons expressing GCaMP6f): induced calcium increases in DRG neurons; EC50 (Mrgpra1): 620 ± 160 nM; EC50 (Mrgprb2): 1700 ± 450 nM; EC50 (Mrgpra2b): 19400 ± 8600 nM; EC50 (Mrgpra3): 1000 ± 180 nM; EC50 (Mrgprc11): 21600 ± 11700 nM; EC50 (MRGPRX1): 610 ± 170 nM; action potential discharges in Mrgpra3-Cre-GFP neurons (Mrgpra3-Cre-GFP neurons; 1μM): evoked action potential discharges; Defb14 induced scratching in mast-cell deficient mice (mice; Mcpt5-Cre::Rosa-stop-DTA mice versus wild-type controls, 1mM, p=0.87): did not attenuate; scratching responses in mice with ablated Mrgpra3-neurons (mice; Mrgpra3-Cre::Rosa-stop-DTA mice (n=14) versus controls (n=12), 1mM, p=0.007): significantly attenuated; itch-responses (scratching bouts) (mice): evoked the most intense itch phenotype

Which results are given for “GIGDPVTCLKSGAICHPVFCPRRYKQIGTCGLPGTKCCKKP (disulfide 8-37, 15-30, 20-38) [DEFB4]”?
EC50 (MRGPRX2): 17500 ± 3800 nM; EC50 (MRGPRX1): 58300 ± 18000 nM

Which results are given for “GIINTLQKYYCRVRGGRCAVLSCLPKEEQIGKCSTRGRKCCRRKK (disulfide 11-40, 18-33, 23-41) [DEFB103]”?
activation of LAD2 cells, calcium imaging (LAD2 cells; peptide 1μM, compared with DEFB4): activated more LAD2 cells and evoked stronger calcium influx than the DEFB4; potency of DEFB103 relative to DEFB4 in LAD2 cells (LAD2 cells; ratio of EC50s, LAD2 calcium imaging): about 10 fold; EC50 (MRGPRX2): 420 ± 110 nM; EC50 (MRGPRX1): 280 ± 50 nM; EC50 (MRGPRX3): 7400 ± 1900 nM

“KKINNPVSCLRKGGRCWNRCIGNTRQIGSCGVPFLKCCKRK (disulfide 9-37, 16-30, 20-38) [Defb3]” was tested. Which EC50 (Mrgpra1) did it give?
Its EC50 is 2700 ± 600 nM.

And the EC50 (Mrgprb2)?
The EC50 was 11500 ± 3500 nM.

And the “itch-responses (scratching bouts)” value (mice)?
The value was “evoked a strong itch phenotype”.
